According to ChEMBL document CHEMBL5126655, “Koshidacins A and B, Antiplasmodial Cyclic Tetrapeptides from the Okinawan Fungus Pochonia boninensis FKR-0564” (J Nat Prod, 2022):

Tests used:
[1] = Selectivity index, ratio of CC50 for human MRC5 cells to IC50 for plasmodium falciparum K1; type: toxicity; settings: read-out: Ratio CC50/IC50
Plasmodium falciparum [2] = experiment: Antiplasmodial activity against Plasmodium falciparum K1 assessed as reduction in parasite growth incubated for 72 hr by LDH assay; type: functional, organism-based; settings: K1, 72 h
Plasmodium berghei = experiment: Antiplasmodial activity against plasmodium berghei N strain infected in ICR(CD1) mouse assessed as inhibition of parasitemia at 30 mg/kg, ip administered for 3 days relative to control; type: functional; settings: 72 h, time 3 day
[3] = Cytotoxicity against human MRC5 cells assessed as reduction in cell viability after 24 hrs by MTT assay; type: toxicity, cell-based
Plasmodium falciparum [4] = experiment: Antiplasmodial activity against Plasmodium falciparum FCR3 assessed as reduction in parasite growth incubated for 72 hr by LDH assay; type: functional, organism-based; settings: FCR3, 72 h
[5] = Selectivity index, ratio of CC50 for human MRC5 cells to IC50 for plasmodium falciparum FCR3; type: toxicity; settings: read-out: Ratio CC50/IC50
[6] = Inhibition of HDAC in Plasmodium falciparum infected in human erythrocytes incubated for 2 hr in presence of sodium [14C]acetate by radiometry assay; type: cell-based; settings: Erythrocyte

SMILES	selectivity ratio [1]	IC50 (Plasmodium falciparum [2])	inhibition in vivo at 30 mg/kg (Plasmodium berghei)	CC50 at 24 h [3]	IC50 (Plasmodium falciparum [4])	selectivity ratio [5]	IC50 [6]
CC1(C)NC(=O)[C@H](CCCCCC(=O)[C@@H](O)CO)NC(=O)[C@H]2CCCN2C(=O)[C@H](Cc2ccccc2)NC1=O	18.4	830 nM	41%	14700 nM	890 nM	16.3	
CC1(C)NC(=O)[C@H](CCCCC[C@@H](O)[C@@H](O)CO)NC(=O)[C@H]2CCCN2C(=O)[C@H](Cc2ccccc2)NC1=O	0.5	12500 nM	18.3%	6800 nM	17100 nM	0.4	
C[C@@H]1CC[C@H]2[C@@H](C)C(=O)O[C@@H]3O[C@@]4(C)CC[C@@H]1[C@]32OO4 [ARTEMISININ]	> 1140	22 nM	99.7%	> 25000 nM	26 nM	> 961	
CCC(=O)CCCCC[C@@H]1NC(=O)[C@H]2CCCCN2C(=O)[C@H]([C@@H](C)CC)NC(=O)[C@H](Cc2cn(OC)c3ccccc23)NC1=O [APICIDIN]							0.7 nM
